According to PMC11874007, “Switching Roles—Exploring Concentration-Dependent Agonistic versus Antagonistic Behavior of Integrin Ligands” (Journal of Medicinal Chemistry, 2025):
Where two headings read alike, the source gives them in different places. Non-standard residues stand in square brackets, D forms with d. Chg = N[C@H](C(=O)O)C1CCCCC1; NMeV = CN[C@H](C(=O)O)C(C)C

How the values were obtained:
[1] = target: T1, human αvβ3-integrin (Homo sapiens, UniProt P05106+P06756); test: ELISA-type solid-phase binding assay: soluble αvβ3 competing for immobilized vitronectin; conditions: competitive ELISA-type assay, referenced to internal standard cilengitide (L2)
T1 construct: purchased R&D 3050-AV-050

[2] = target: T2, human α5β1-integrin (Homo sapiens, UniProt P05556+P08648); test: ELISA-type solid-phase binding assay: soluble α5β1 competing for immobilized fibronectin
T2 construct: purchased R&D 3230-A5-050
Procedure: Prior to the biological evaluation of the ligands, their specificity and subtype-selective affinity was analyzed by an ELISA (enzyme-linked immune sorbent assay)-type solid-phase ligand binding assay[59] by measuring the competitive binding of soluble purified integrins in the presence of the respective ligands to plate-immobilized purified ECM proteins, as described in Experimental Section: vitronectin (for αvβ3-directed ligands), fibronectin (for α5β1-directed ligands), or the latency-associated peptide (LAP) of transforming growth factor-β (TGF-β) (for αvβ6-directed ligands). Then, we determined whether Cy5.5 conjugation of ligands led to altered ligand binding affinities and integrin subtype selectivity compared to the unlabeled compounds. In the following, we describe in detail the alterations detected.
(3) 2.0 μg/mL mouse-anti-human CD51/61 (BD Biosciences, Franklin Lakes, New Jersey, USA; #555504). (4) 2.0 μg/mL anti-mouse IgG-POD (Sigma-Aldrich, #A9044-2ML). Integrin αvβ6: (1) 0.4 μg/mL LAP (TGF-β) (R&D, #246-LP-025), (2) 0.5 μg/mL human αvβ6 (R&D, #3817-AV-050), (3) 1:500 dilution mouse-anti-human αv (MAB1978) (Merck Millipore, #MAB1978), (4) 2.0 μg/mL anti-mouse IgG-POD (Sigma-Aldrich, #A9044-2ML). Integrin α5β1: (1) 0.5 μg/mL human fibronectin (Sigma-Aldrich, #F0895-1MG), (2) 2.0 μg/mL human α5β1 (R&D, 3230-A5-050), (3) 1.0 μg/mL mouse-anti-human CD49e (BD Biosciences, #555651), (4) 2.0 μg/mL anti-mouse IgG-POD (Sigma-Aldrich, #A9044-2 ML). For Western blot analysis, the following antibodies were used: (p-)p44/42^(erk-1/2) (1) 1:300 dilution of rabbit-anti-human p44/42^(erk-1/2) antibody (Cell Signaling Technology, Frankfurt, Germany, #9102) in 3% (w/v) bovine serum albumin (BSA)/TBS-T, (2) 1:5,000 dilution goat-anti-rabbit horseradish-conjugated secondary antibody in 1% (w/v) BSA/TBS-T. Phospho-p44/42^(erk-1/2): (1) 1:200 dilution rabbit-anti-human p44/42^(erk-1/2) (Thr202/Tyr204) antibody (Cell Signaling Technology, #9101) in 3% (w/v) BSA/TBS-T, (2) 1:5,000 dilution goat-anti-rabbit horseradish-conjugated secondary antibody in 1% (w/v) BSA/TBS-T. FAK: (1) 1:300 dilution mouse-anti-human FAK antibody (Cell Signaling Technology, #9102) in 3% (w/v) BSA/TBS-T, (2) 1:5,000 dilution goat-anti-mouse horseradish-conjugated secondary antibody in 1% (w/v) BSA/TBS-T. Phospho-FAK: (1) 1:300 dilution mouse-anti-human p-FAK antibody (Cell Signaling Technology) in 3% (w/v) BSA/TBS-T, (2) 1:5,000 dilution goat-antimouse horseradish-conjugated secondary antibody in 1% (w/v) BSA/TBS-T. Differences in blotting efficiency and protein loading were normalized by using a primary antibody against glyceraldehyde-3-phosphate dehydrogenase (GAPDH, 1:10,000 dilution in 1% (w/v) BSA/TBS-T, at RT for 45 min (Millipore, Schwalbach, Germany) and a secondary horseradish-conjugated goat-anti-mouse antibody (1:10,000 dilution in 1% (w/v) BSA/TBS-T, 40 min at RT).
The integrin binding assay was done to assess the specificity and subtype-selective affinity of L1–L5 and their respective Cy5.5-conjugated ligands by using isolated and purified integrins in cell-free ligand binding assays, as previously published.[59]Table 2 summarizes the used ECM ligands, integrins, and antibodies. In brief, flat-bottom 96-well plates were coated overnight at 4 °C with the natural ECM integrin ligands, vitronectin (for αvβ3-directed ligands), fibronectin (for α5β1-directed ligands), or LAP of TGF-β1 (for αvβ6-directed ligands) (100 μL/well in buffer containing 15 mM Na2CO3, 35 mM NaHCO3, pH 9.6). Subsequently, each well was washed in PBS, 0.01% (v/v) Tween 20, 137 mM NaCl, 2.7 mM KCl, 10 mM Na2HPO4, 2 mM KH2PO4, pH 7.4 (PBS-T), and blocked for unspecific binding events for 1 h at RT in 20 mM Tris–HCl, pH 7.5, 150 mM NaCl, 1 mM CaCl2, 1 mM MgCl2, 1 mM MnCl2, and 1% (w/v) BSA. Meanwhile, dilution series of the different integrin ligands and the internal standards were prepared, ranging from 20 μM to 256 pM in 1:5 dilution steps. […]

[3] = target: T3, human αvβ6-integrin (Homo sapiens, UniProt P06756+P18564); test: ELISA-type solid-phase binding assay: soluble αvβ6 competing for immobilized LAP (TGF-β); conditions: competitive ELISA-type assay, referenced to internal standard RTDLDSLRT
T3 construct: purchased R&D 3817-AV-050

[4] = test system: αvβ6- OV-MZ-6 cells; test: Cellular uptake of Cy5.5-labeled ligands, OV-MZ-6 control cells; type: cell-based; conditions: 1 μM Cy5.5-labeled ligand
Procedure: (§1) For intracellular drug delivery, integrin ligands designed as drug-conjugated vehicles have to be easily and selectively internalized by tumor cells (over)expressing the respective targeted integrin subtype. […] It should be noted here that HN, OV-MZ-6, and RKO cells also express low αvβ3 expression levels.
(§2) Microchamber cell culture slides were coated with fibronectin (2 μg/mL), followed by cell seeding at a density of 50,000 cells/well. After 24 h of cultivation, cells were treated with integrin ligands L1-Cy5.5 to L5-Cy5.5 (1 μM in 0.01% (w/v) CaCl2 and 0.1% (w/v) BSA in PBS; 250 μL/well) for 3, 30, 60, or 300 min at 37 °C. The cells were washed in PBS/0.01% (w/v) CaCl2 (6 × 800 μL) and the fluorescence signal intensity recorded using the LSM 700 microscope (Zeiss, Jena, Germany). CellMask Green Plasma Membrane Stain was used to stain the cell membrane; nuclei were stained with Hoechst 33342.

[5] = test system: HN cells (αvβ6+); test: Time-dependent cellular uptake of Cy5.5-labeled ligands, HN cells; type: cell-based; conditions: 1 μM, within 3 min
Source text: as §1
(§3) Figure 7 Cellular uptake of Cy5.5-labeled integrin ligands. […] Nuclei were costained with Hoechst 33342 (blue signal) and cell membranes with CellMask Green (green signal). Merge of stains (yellow signal) indicated colocalization of ligands at the cell membrane. Scale bar: 50 μm.
as §2

[6] = target: human α5β1-integrin (human) (UniProt P08648); test: ELISA; competitive ELISA-type solid-phase assay: human fibronectin (0.5 μg/mL) coated on the plate overnight at 4 °C, soluble human α5β1 (2.0 μg/mL) added with a dilution series of the ligand (20 μM to 256 pM), 1 h at RT; blocked in 20 mM Tris-HCl pH 7.5, 150 mM NaCl, 1 mM CaCl2, 1 mM MgCl2, 1 mM MnCl2, 1% BSA; bound integrin detected with anti-CD49e; IC50 referenced to cilengitide
[7] = test system: M21 (αvβ3+), HN (αvβ6+), RKO (α5β1+) cells; test: Time-dependent cellular uptake of Cy5.5-labeled ligands in cells overexpressing the targeted integrin; type: cell-based; conditions: state within 30 min, Cy5.5-conjugated ligands, target integrin-expressing cells
Source text: as §1, §3, §2

[8] = target: T4, human αvβ6-integrin (human, UniProt P06756 31-1048; P18564 22-709); test: ELISA; competitive ELISA-type solid-phase assay: LAP of TGF-β1 (0.4 μg/mL) coated on the plate overnight at 4 °C, soluble human αvβ6 (0.5 μg/mL) added with a dilution series of the ligand (20 μM to 256 pM), 1 h at RT; blocked in 20 mM Tris-HCl pH 7.5, 150 mM NaCl, 1 mM CaCl2, 1 mM MgCl2, 1 mM MnCl2, 1% BSA; bound integrin detected with anti-αv; IC50 referenced to …; conditions: both partners purified
T4 construct: integrin alpha-V, human, chain of the soluble purified αvβ6 heterodimer; integrin beta-6, human, chain of the soluble purified αvβ6 heterodimer; also called integrin αvβ6; source: bought: R&D, #3817-AV-050

[9] = target: human α5β1-integrin (human) (UniProt P08648)
[10] = competitive ELISA-type assay, referenced to internal standard cilengitide (L2)

COc1ccnc(NCCCOc2ccc(C[C@@H](CC(=O)O)NC(=O)c3ccc(OCCCNC(=O)CCCCCNC(=O)CCCCC[N+]4=C(/C=C/C=C/C=C5/N(C)c6ccc7ccccc7c6C5(C)C)C(C)(C)c5c4ccc4ccccc54)cc3)cc2)c1 [L1-Cy5.5]
IC50 [1]: 0.00102 ± 2e-05 µM | IC50 [2, 10]: > 1 µM | IC50 [3]: > 1 µM | Binding / intracellular uptake in control cells [4]: only minor intracellular traces

CC(C)C[C@@H]1NC(=O)[C@H](CC(=O)O)NC(=O)CNC(=O)[C@H](CCCNC(=N)N)NC(=O)[C@H](Cc2ccccc2)NC(=O)[C@H](CCCCNC(=O)CCCCCNC(=O)CCCCC[N+]2=C(/C=C/C=C/C=C3/N(C)c4ccc5ccccc5c4C3(C)C)C(C)(C)c3c2ccc2ccccc32)N(C)C(=O)[C@H]2CCCN2C(=O)[C@H](Cc2ccccc2)NC(=O)[C@H](C)NC1=O [L3-Cy5.5]
IC50 [2, 10]: > 1 µM | Binding / intracellular uptake in control cells [4]: did not bind | Localization of Cy5.5-labeled ligand [5]: already intracellularly visible

CN1/C(=C/C=C/C=C/C2=[N+](CCCCCC(=O)NCCCCCC(=O)N[C@@H](CCCCNC(=O)[C@@H]3CCC(=O)N[C@@H](CCCNC(=N)N)C(=O)NCC(=O)N[C@@H](CC(=O)O)C(=O)N[C@@H](C4CCCCC4)C(=O)N3)C(N)=O)c3ccc4ccccc4c3C2(C)C)C(C)(C)c2c1ccc1ccccc21 [L4-Cy5.5]
IC50 [2]: > 1 µM | Binding / intracellular uptake in control cells [4]: did not bind

Cc1cc(OCCCNC(=O)CCCCCNC(=O)CCCCC[N+]2=C(/C=C/C=C/C=C3/N(C)c4ccc5ccccc5c4C3(C)C)C(C)(C)c3c2ccc2ccccc32)cc(C)c1C(=O)N[C@@H](CNC(=O)CNC(=O)c1cccc(NC(=N)N)c1)C(=O)O [L5-Cy5.5]
IC50 [1]: > 1 µM | IC50 [2, 10]: 0.00469 ± 0.001 µM | IC50 [3]: 0.154 ± 0.136 µM

L3-Cy5.5, the Cy5.5 conjugate of c(FRGDLAFp(NMe)K) (L3) (peptide)
IC50 [6]: > 1 µM

L4-Cy5.5, the Cy5.5 conjugate of c(RGD-Chg-isoE)-CONH2 (L4) (peptide)
IC50 [6]: > 1 µM

c(RGD-Chg-isoE)-CONH2 [L4]
Endocytosis of Cy5.5-conjugated ligand [7]: already completed

B1: L4-Cy5.5, the Cy5.5 conjugate of c(RGD-Chg-isoE)-CONH2 (L4) (peptide)
chain: cyclo(RGD[Chg][isoE])
modifications: not fully specified (C-terminus); printed as c(RGD-Chg-isoE)-CONH2; also: Cy5.5 attached via Ahx linker, site not given here
IC50 [8]: 0.00763 ± 0.00083 µM

cyclo(RGD[dF][NMeV]) [cilengitide, c(RGDf(NMe)V) (L2)]
p-FAK level by Western blot in OV-MZ-6 cells (low αvβ3, α5β1+) with 1 nM cilengitide, 5 to 60 min [9]: 2.2 fold
